Laboratory results published in patent publication US20250011295A1, “USE OF 3-ARYLPHTHALIDES AND DERIVATIVES THEREOF AS ANTI-INFLAMMATORY AGENTS” (UNIVERSIDAD DE CÁDIZ, priority 2021, published 2025).

Tests used:
Type in all cases: cell-based
[1] = tested on: macrophages, Raw 264.7 cell line; experiment: Nitrite production inhibition (Greiss colorimetric technique) in LPS-stimulated Raw 264.7 cells; conditions: LPS 2 μg·mL^−1, compound 10 μM; for Nitrite production, LPS or cytokines + Compound (10 μM): baseline = 1.00
Experimental: (§1) Anti-inflammatory activity was measured on Bv.2 microglial cell line (innate immune system of the central nervous system), macrophages, Raw 264.7 cell line (peripheral immune system), renal tubular cell lines, MCT (renal tubule epithelials) and pancreatic beta cells, INS-1 (insulin-producing cells targeted in the process leading to diabetes mellitus). […] The activation of the inflammatory process induces the secretion of nitrites (NO2) into the medium, so the induction and modulation of the inflammatory response by 3-(4,5-dihydroxy-2-(2-ethylthio)ethylphenyl)phthalide and 3-(2,4-dihydroxyphenyl)phthalide can be determined by means of the Greiss colorimetric technique.
(§2) Tables 1 and 2 show the results of the nitrite production inhibitory activity caused by compounds II and III (10 μM), respectively, on LPS-stimulated Bv2 and Raw264.7 cell lines and on cytokine-stimulated MCT and INS-1 cell lines.

[2] = tested on: Bv.2, Raw 264.7, MCT and INS-1 cell lines; experiment: Cytotoxic effect in treated cell lines; conditions: any of the treated cell lines
[3] = tested on: Bv.2 microglial cell line; experiment: Nitrite production inhibition (Greiss colorimetric technique) in LPS-stimulated Bv.2 cells; conditions: LPS 2 μg·mL^−1, compound 10 μM; for Nitrite production, LPS or cytokines + Compound (10 μM): baseline = 1.00
Experimental: as §1, §2

[4] = tested on: renal tubular cell lines, MCT; experiment: Nitrite production inhibition (Greiss colorimetric technique) in cytokine-stimulated MCT cells; conditions: for % of reduction in nitrite production: cytokine cocktail 10 ng·mL^−1, compound 10 μM; for Nitrite production, LPS or cytokines + Compound (10 μM): cytokine cocktail (TNFα, IL1β, IFNγ, TFGβ) 10 ng·mL^−1, compound 10 μM, baseline = 1.00
Experimental: as §1, §2

[5] = tested on: pancreatic beta cells, INS-1; experiment: Nitrite production inhibition (Greiss colorimetric technique) in cytokine-stimulated INS-1 cells; conditions: for % of reduction in nitrite production: cytokine cocktail 10 ng·mL^−1, compound 10 μM; for Nitrite production, LPS or cytokines + Compound (10 μM): cytokine cocktail (TNFα, IL1β, IFNγ, TFGβ) 10 ng·mL^−1, compound 10 μM, baseline = 1
Experimental: as §1, §2

Nos2 [6] = experiment: Nos2 expression inhibition (qPCR) in kidney explants from BB rat; conditions: kidney explant, 20 μM for 24 h
Experimental: (§3) Anti-inflammatory activity was determined using organotypic cultures or retinal and kidney explants from a murine model which develops type 1 or autoimmune diabetes mellitus spontaneously, i.e., BioBreeding (BB) rat. This animal model of type 1 diabetes mellitus reproduces disease progression in a manner similar to that occurring in patients. Tissues, retina, and kidney are extracted, maintaining cytoarchitecture and tissue connections of each of the organs, from BB rats that are 7 weeks old, which is the time before the presence of constant hyperglycemia, which appears around weeks 9-11 of life. A prediabetic model with active inflammatory parameters that resemble those occurring during the progression of type 1 diabetes mellitus in patients is thereby obtained. The cultured explants were treated with 3-(2,4-dihydroxyphenyl)phthalide (compound III) at a dose of 20 μM for 24 h.
(§4) Activation of the inflammatory process induces nitric oxide synthase, Nos2, gene expression, with messenger RNA quantification being determined by means of the quantitative PCR technique (qPCR), and can show inflammatory response modulation in retinal and kidney explants from an animal model with type 1 or autoimmune diabetes mellitus.

Nos2 [7] = experiment: Nos2 expression inhibition (qPCR) in retinal explants from BB rat; conditions: retinal explant, 20 μM for 24 h
Experimental: as §3, §4

[8] = 7 weeks old BB rat, untreated BB rat = 1.00

Structure (SMILES) | % of reduction in nitrite production [1] | Nitrite production, LPS or cytokines + Compound (10 μM) [1] | cytotoxic effect ([2]; increasing doses for 24 h until the maximum concentration of 25 μM) | % of reduction in nitrite production [3] | Nitrite production, LPS or cytokines + Compound (10 μM) [3] | % of reduction in nitrite production [4] | Nitrite production, LPS or cytokines + Compound (10 μM) [4] | % of reduction in nitrite production [5] | Nitrite production, LPS or cytokines + Compound (10 μM) [5] | Nos2 expression, BB rat + 3-(2,4-dihydroxyphenyl)phthalide (20 μM) (Nos2 [6]; [8]) | % of reduction of Nos2 expression (Nos2 [6]; BB rat) | cytotoxic effect ([2]; increasing doses for 24 h until the maximum concentration of 50 μM) | Nos2 expression, BB rat + 3-(2,4-dihydroxyphenyl)phthalide (20 μM) (Nos2 [7]; [8]) | % of reduction of Nos2 expression (Nos2 [7]; BB rat)
CCSCCc1cc(O)c(O)cc1C1OC(=O)c2ccccc21 (stereo not shown) [Compound II, 3-(4,5-dihydroxy-2-(2-ethylthio)ethylphenyl)phthalide] | 79.88% | 1.38 ± 0.43 | no cytotoxic effect was detected | 48.31% | 1.98 ± 0.203 | 77.91% | 1.788 ± 0.29 | 18.82% | 3.644 ± 0.004 |  |  |  |  | 
O=C1OC(c2ccc(O)cc2O)c2ccccc21 (stereo not shown) [Compound III, 3-(2,4-dihydroxyphenyl)phthalide] | 33.38% | 3.60 ± 0.42 |  | 62.92% | 3.47 ± 0.27 | 83.14% | 1.53 ± 0.06 | 65.32% | 1.48 ± 0.02 | 0.348 ± 0.05 | 65.2% | no cytotoxic effect was detected | 0.482 ± 0.05 | 51.8%
